Patent US8722633B2, “Glycoside derivatives and uses thereof” (Novartis AG, priority 2011, dated 2014)

Assays:
[1] = biological target: T1, human sodium glucose co-transporter 2 (Homo sapiens, UniProt P31639); test: SGLT-2 assay: sodium-dependent 14C-AMG uptake in CHO-hSGLT2 or HEK-hSGLT2 cells; type: cell-based; details: n = 1-4, read-out: SGLT2 IC50 nM (n = 1-4)
T1 construct: expressed in transfected cells; host or cells: CHO-K1 (ATCC CCL-61) or HEK293 (ATCC CRL-1573), stably transfected with pZeoSV carrying the hSGLT2 cDNA
T1 sequence (P31639 1-672): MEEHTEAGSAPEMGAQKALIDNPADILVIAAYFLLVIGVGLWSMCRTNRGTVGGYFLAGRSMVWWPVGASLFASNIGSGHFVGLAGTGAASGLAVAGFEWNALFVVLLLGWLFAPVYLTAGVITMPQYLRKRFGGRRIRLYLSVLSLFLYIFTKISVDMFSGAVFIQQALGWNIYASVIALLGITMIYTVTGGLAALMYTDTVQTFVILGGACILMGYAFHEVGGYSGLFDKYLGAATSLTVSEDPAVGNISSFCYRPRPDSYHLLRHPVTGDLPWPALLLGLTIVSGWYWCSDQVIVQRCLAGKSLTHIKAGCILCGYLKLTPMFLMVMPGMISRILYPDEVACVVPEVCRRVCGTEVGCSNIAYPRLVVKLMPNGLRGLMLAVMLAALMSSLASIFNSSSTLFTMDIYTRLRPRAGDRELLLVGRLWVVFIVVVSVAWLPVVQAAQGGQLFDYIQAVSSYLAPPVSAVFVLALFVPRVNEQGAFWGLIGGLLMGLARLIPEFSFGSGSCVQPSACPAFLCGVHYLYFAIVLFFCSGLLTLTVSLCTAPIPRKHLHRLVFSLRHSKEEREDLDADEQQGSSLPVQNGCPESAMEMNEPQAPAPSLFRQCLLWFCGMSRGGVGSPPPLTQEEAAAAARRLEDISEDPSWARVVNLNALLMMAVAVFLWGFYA
Description: These cell lines transport ^14C-labelled alpha-methyl-glucopyranoside (^14C-AMG, Amersham) into the interior of the cell in sodium-dependent manner.
(§1) The SGLT-2 assay is carried out as follows: CHO-hSGLT2 cells are cultivated in Ham's F12 Medium (BioWhittaker) with 10% foetal calf serum and 250 μg/mL zeocin (Invitrogen), and HEK293-hSGLT2 cells are cultivated in DMEM medium with 10% foetal calf serum and 250 μg/mL zeocin (Invitrogen). The cells are detached from the culture flasks by washing twice with PBS and subsequently treating with trypsin/EDTA. After the addition of cell culture medium the cells are centrifuged, resuspended in culture medium and counted in a Casy cell counter. Then 40,000 cells per well are seeded into a white, 96-well plate coated with poly-D-lysine and incubated overnight at 37° C., 5% CO2. The cells are washed twice with 250 μl of assay buffer (Hanks Balanced Salt Solution, 137 mM NaCl, 5.4 mM KCl, 2.8 mM CaCl2, 1.2 mM MgSO4 and 10 mM HEPES (pH 7.4), 50 μg/mL of gentamycin). 250 μl of assay buffer and 5 μl of test compound are then added to each well and the plate is incubated for a further 15 minutes in the incubator. 5 μl of 10% DMSO are used as the negative control. The reaction is started by adding 5 μl of 14 C— AMG (0.05 μCi) to each well. After 2 hours' incubation at 37° C., 5% CO2, the cells are washed again with 250 μl of PBS […] and then lysed by the addition of 25 μl of 0.1 N NaOH (5 min. at 37° C.). 200 μl of MicroScint20 (Packard) are added to each well and incubation is continued for a further 20 min at 37° C. After this incubation the radioactivity of the ^14C-AMG absorbed is measured in a Topcount (Packard) using a ^14C scintillation program.

human SGLT1 = biological target: T2, human SGLT1 (Homo sapiens, UniProt P13866); test: SGLT1 assay: analogous 14C-AMG uptake test with hSGLT1 cDNA expressed in CHO-K1 or HEK293 cells; type: cell-based; details: n = 1-4
T2 construct: the cDNA for hSGLTI (Genbank Ace. No. NM000343); expressed in transfected cells; host or cells: CHO-K1 or HEK293 cells expressing the hSGLT1 cDNA
T2 sequence (P13866 1-664): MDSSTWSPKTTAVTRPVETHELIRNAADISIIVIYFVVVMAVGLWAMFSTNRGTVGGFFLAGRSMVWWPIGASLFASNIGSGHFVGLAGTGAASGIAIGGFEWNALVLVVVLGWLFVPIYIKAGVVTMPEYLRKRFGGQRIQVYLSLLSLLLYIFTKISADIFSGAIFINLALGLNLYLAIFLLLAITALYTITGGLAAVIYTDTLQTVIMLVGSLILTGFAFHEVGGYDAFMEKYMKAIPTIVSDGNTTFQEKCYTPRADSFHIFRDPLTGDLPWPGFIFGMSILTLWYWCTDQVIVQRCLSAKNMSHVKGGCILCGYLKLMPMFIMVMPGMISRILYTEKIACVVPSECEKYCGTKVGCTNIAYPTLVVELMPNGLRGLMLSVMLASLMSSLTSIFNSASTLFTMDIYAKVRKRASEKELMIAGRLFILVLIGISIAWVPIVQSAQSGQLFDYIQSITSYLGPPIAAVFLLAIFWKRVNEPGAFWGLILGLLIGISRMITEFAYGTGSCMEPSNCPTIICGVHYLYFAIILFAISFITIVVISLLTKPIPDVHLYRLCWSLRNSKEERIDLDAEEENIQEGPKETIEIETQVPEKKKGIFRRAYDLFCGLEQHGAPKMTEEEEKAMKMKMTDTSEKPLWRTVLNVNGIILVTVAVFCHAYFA
Description: as §1
To determine the selectivity with respect to human SGLT1 an analogous test is set up in which the cDNA for hSGLTI (Genbank Ace. No. NM000343) instead of hSGLT2 cDNA is expressed in CHO-K1 or HEK293 cells.

IC50 [1] [nM]	IC50 (human SGLT1) [nM]	SMILES
0.36	–	CCc1ccc([C@@H]2O[C@H](SC)[C@@H](O)[C@H](O)[C@H]2O)cc1Cc1ccc2c(c1)OCCO2 [Example 1-1, (2S,3R,4R,5S,6R)-2-[3-(2,3-Dihydro-benzo[1,4]dioxin-6-ylmethyl)-4-ethyl-phenyl]-6-methylsulfanyl-tetrahydropyran-3,4,5-triol]
9.2	97	CS(=O)(=O)[C@H]1O[C@@H](c2ccc(C3CC3)c(Cc3ccc4c(c3)OCCO4)c2)[C@H](O)[C@@H](O)[C@@H]1O [Example 2, (2S,3R,4R,5S)-2-[4-Cyclopropyl-3-(2,3-dihydro-benzo[1,4]dioxin-6-ylmethyl)-phenyl]-6-methanesulfonyl-tetrahydro-pyran-3,4,5-triol]
1.45	195	CCc1ccc([C@@H]2O[C@H](S(C)(=O)=O)[C@@H](O)[C@H](O)[C@H]2O)cc1Cc1ccc2c(c1)OCCO2 [Example 2-1, (2S,3R,4R,5S,6R)-2-[3-(2,3-Dihydro-benzo[1,4]dioxin-6-ylmethyl)-4-ethyl-phenyl]-6-methanesulfonyl-tetrahydropyran-3,4,5-triol]
0.29	0.55	CSC1O[C@@H](c2ccc(C3CC3)c(Cc3ccc4c(c3)OCCO4)c2)[C@H](O)[C@@H](O)[C@@H]1O (stereo partly drawn) [Example 1, (2S,3R,4R,5S)-2-[4-cyclopropyl-3-(2,3-dihydro-benzo[1,4]dioxin-6-ylmethyl)-phenyl]-6-methylsulfanyl-tetrahydro-pyran-3,4,5-triol]
